# Test results reported in patent US20080118436A1, “Pathological Animal Model For Non-Alcoholic Fatty Hepatitis” (priority 2004, published 2008).
# Where a name gives a salt, the structure may show the parent alone.
# Key:
# C57BL/6J male mice [1] = experiment: Subcutaneous administration of tetracycline hydrochloride for 10 days to mice fed with HFD for 8 weeks (Example 2); format: in vivo; conditions: for histopathological test of liver: mouse, in vivo, sc
# Excerpt: (§1) In the following Examples and Comparative examples, as an animal for producing a pathologic model animal, C57BL/6J male mice (Nippon CLEA, Inc.) were used. Further, as a high-fat diet (hereinafter referred to as “HFD”), D12492 (fat content: 60 kcal%) (Research Diet Inc.) was used. As a control diet, CE-2 (Nippon CLEA, Inc.) to be used for normal rearing of mice was used. As a tetracycline antibiotic, tetracycline hydrochloride (Sigma Inc.) was used. The administration of tetracycline hydrochloride was carried out by injection of a solution of 0, 10, 30 or 100 mg/10 mL of tetracycline hydrochloride prepared with a 0.5% physiological saline solution. Here, the “solution of 0 mg/10 mL of tetracycline hydrochloride” means a 0.5% physiological saline solution.
# 20 mice (7 weeks of age) were fed ad libitum with HFD for 8 weeks. Then, the mice were divided into 4 groups (5 mice×4 groups) in such a manner that the body weight and the body fat percentage were equal in the respective groups, and subcutaneously administered with tetracycline hydrochloride at a dose of 0, 30, 60 and 100 mg/kg/day for 10 days (hereinafter, the groups administered with tetracycline hydrochloride at a dose of 0, 30, 60 and 100 mg/kg/day are referred to as “TC 0 group”, “TC 30 group”, “TC 60 group” and “TC 100 group”, respectively). The mice were fed ad libitum with HFD also during the period of administering tetracycline hydrochloride.
# The body weight of mice was measured on 3 days before initiation of administration of tetracycline hydrochloride and everyday from the next day until day 11 after initiation of administration thereof. FIG. 12 is a line graph showing the change in the body weight of mice subcutaneously administered with tetracycline hydrochloride for 10 days after feeding them with HFD for 8 weeks. […] Incidentally, in FIG. 12, the term “days” represents the number of days elapsed after initiation of administration of tetracycline hydrochloride.
# Blood collection and dissection were carried out in the same manner as in Example 1.
# The plasma ALT level, plasma AST level, plasma insulin level and plasma glucose level were measured in the same manner as in Example 1. FIG. 13 is a bar graph showing the plasma ALT level in mice subcutaneously administered with tetracycline hydrochloride for 10 days after feeding them with HFD for 8 weeks. FIG. 14 is a bar graph showing the plasma AST level in mice subcutaneously administered with tetracycline hydrochloride for 10 days after feeding them with HFD for 8 weeks. […] FIG. 15 is a bar graph showing the plasma insulin level in mice subcutaneously administered with tetracycline hydrochloride for 10 days after feeding them with HFD for 8 weeks. […] FIG. 16 is a bar graph showing the plasma glucose level in mice subcutaneously administered with tetracycline hydrochloride for 10 days after feeding them with HFD for 8 weeks.
# The hepatic TG level was measured in the same manner as in Example 1. FIG. 17 is a bar graph showing the hepatic TG level in mice subcutaneously administered with tetracycline hydrochloride for 10 days after feeding them with HFD for 8 weeks.
# Measurement of Hepatic TNF-α mRNA level and hepatic IL-1β mRNA level The hepatic TNF-α mRNA level and hepatic IL-1β mRNA level were measured in the same manner as in Example 1. FIG. 18 is a bar graph showing the hepatic TNF-α mRNA level in mice subcutaneously administered with tetracycline hydrochloride for 10 days after feeding them with HFD for 8 weeks. FIG. 19 is a bar graph showing the hepatic IL-1β mRNA level in mice subcutaneously administered with tetracycline hydrochloride for 10 days after feeding them with HFD for 8 weeks.
# A histopathological test of liver was carried out in the same manner as in Example 1.
# C57BL/6J male mice [2] = experiment: Intraperitoneal administration of tetracycline hydrochloride for 10 days to mice fed with HFD for 8 weeks (Example 1); format: in vivo
# Excerpt: as §1
# 29 mice (6 weeks of age) were divided into a group of 15 mice fed with HFD (hereinafter referred to as an “HFD group”) and a group of 14 mice fed with a control diet (hereinafter referred to as a “control group”). The following experiments related to the HFD group (15 mice) and the control group (14 mice) were assigned to Example 1 and Comparative example 1, respectively.
# Feeding of HFD or control diet and intraperitoneal administration of tetracycline hydrochloride First, the mice in the HFD group and the control group were fed ad libitum with HFD and the control diet for 8 weeks, respectively. Then, the mice in the HFD group and the control group were divided into 3 groups, respectively, in such a manner that the body weight and the body fat percentage were equal in the respective groups, thereby to form 3 groups in the HFD group (5 mice×3 groups), and 3 groups in the control group (5 mice×2 groups and 4 mice×1 group). Then, tetracycline hydrochloride was intraperitoneally administered to both the HFD group and the control group at a dose of 0, 10 and 30 mg/kg/day for 10 days (hereinafter, the groups administered with tetracycline hydrochloride at a dose of 0, 10 and 30 mg/kg/day are referred to as “TC 0 group”, “TC 10 group” and “TC 30 group”, respectively). The mice were fed ad libitum with HFD or the control diet also during the period of administering tetracycline hydrochloride.
# The body weight of mice was measured on 4 days before initiation of administration of tetracycline hydrochloride and on day 1, 3, 5, 7, 10 and 11 after initiation of administration thereof. FIG. 1 is a line graph showing the change in the body weight of mice intraperitoneally administered with tetracycline hydrochloride for 10 days after feeding them with HFD or the control diet for 8 weeks. […] Incidentally, in FIG. 1, the term “days” represents the number of days elapsed after initiation of administration of tetracycline hydrochloride.
# On the next day after completion of administration of tetracycline hydrochloride (on day 11 after initiation of administration), the mice were anesthetized by isoflurane inhalation. After it was Confirmed that the mice lost pain sensation by pinching the tail with forceps, the mice underwent laparotomy and the blood was collected from the abdominal vena cava with a syringe containing heparin. The collected blood was centrifuged at 4° C. for 10 minutes at 7500 rpm thereby to separate plasma. The obtained plasma was cryopreserved. […]
# By using the cryopreserved plasma, the plasma ALT level, plasma AST level and plasma glucose level were measured using Hitachi autoanalyzer 7070 (Hitachi Hi Technologies), and the plasma insulin level was measured using an insulin assay kit (Seikagaku Corporation). […]
# [3] = HFD 8 weeks, s.c. 30 mg/kg/day for 10 days, vs normal mice
# [4] = HFD 8 weeks, s.c. 60 mg/kg/day for 10 days, vs normal mice
# [5] = HFD 8 weeks, s.c. 100 mg/kg/day for 10 days, vs normal mice
# [6] = HFD 8 weeks, i.p. 30 mg/kg/day for 10 days, vs normal mice
# [7] = HFD group (i.p. 0, 10, 30 mg/kg/day for 10 days), vs normal mice
smiles,measurement,setting,value
CN(C)[C@@H]1C(O)=C(C(N)=O)C(=O)[C@@]2(O)C(O)=C3C(=O)c4c(O)cccc4[C@@](C)(O)[C@H]3C[C@@H]12 [tetracycline hydrochloride],plasma ALT level,C57BL/6J male mice [1]; [3],significantly higher
same,plasma AST level,C57BL/6J male mice [1]; [3],significantly higher
same,plasma insulin level,C57BL/6J male mice [1]; [3],higher
same,plasma ALT level,C57BL/6J male mice [1]; [4],significantly higher
same,plasma AST level,C57BL/6J male mice [1]; [4],significantly higher
same,plasma insulin level,C57BL/6J male mice [1]; [4],higher
same,plasma ALT level,C57BL/6J male mice [1]; [5],significantly higher
same,plasma AST level,C57BL/6J male mice [1]; [5],significantly higher
same,plasma insulin level,C57BL/6J male mice [1]; [5],equivalent
same,plasma glucose level,"C57BL/6J male mice [1]; HFD 8 weeks, s.c. any group (0, 30, 60, 100 mg/kg/day) for 10 days, vs normal mice",higher
same,histopathological test of liver,C57BL/6J male mice [1]; 30 mg/kg/day,presence of fatty liver and the invasion of inflammatory cells were observed
same,histopathological test of liver,C57BL/6J male mice [1]; 60 mg/kg/day,presence of fatty liver and the invasion of inflammatory cells were observed
same,histopathological test of liver,C57BL/6J male mice [1]; 100 mg/kg/day,presence of fatty liver and the invasion of inflammatory cells were observed
same,plasma ALT level,C57BL/6J male mice [2]; [6],significantly higher
same,plasma AST level,C57BL/6J male mice [2]; [6],significantly higher
same,plasma glucose level,C57BL/6J male mice [2]; [7],equivalent to or higher
same,plasma insulin level,C57BL/6J male mice [2]; [7],equivalent to or higher
same,histopathological test of liver,"C57BL/6J male mice [2]; mouse, in vivo, ip, 30 mg/kg/day",presence of fatty liver and the invasion of inflammatory cells were observed
